Five molecules from article PMC12369846, “Structural Insights into Isovaleryl-Coenzyme A Dehydrogenase: Mechanisms of Substrate Specificity and Implications of Isovaleric Acidemia-Associated Mutations” (Research, 2025) can be followed below.

Data set [1] has as its target T1, human IVD (isovaleryl-CoA dehydrogenase) (Homo sapiens, UniProt P26440).
T1 construct: residues 33-426 (transit peptide removed), N-terminal 8xHis tag, pET-28a, E. coli BL21(DE3)
T1 sequence (P26440 33-426): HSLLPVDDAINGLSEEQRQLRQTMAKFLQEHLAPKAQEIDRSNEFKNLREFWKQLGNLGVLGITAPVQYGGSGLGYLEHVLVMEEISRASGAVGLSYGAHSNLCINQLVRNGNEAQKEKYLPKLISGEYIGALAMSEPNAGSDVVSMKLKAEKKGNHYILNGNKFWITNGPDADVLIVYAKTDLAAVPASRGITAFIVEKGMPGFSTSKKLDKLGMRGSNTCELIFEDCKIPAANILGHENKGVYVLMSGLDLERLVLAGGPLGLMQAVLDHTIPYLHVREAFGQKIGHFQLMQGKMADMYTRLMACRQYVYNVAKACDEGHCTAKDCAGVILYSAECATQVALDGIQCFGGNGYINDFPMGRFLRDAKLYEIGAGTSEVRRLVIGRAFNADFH
In words: cryo-EM structure. It counts as binding. The following applies: noncovalent cofactor, 4 FAD per tetramer; FAD added to buffer; pH 7.4; 2.55 Å.

The target in data set [2] is T2, human IVD (isovaleryl-CoA dehydrogenase) (Homo sapiens, UniProt P26440, E286A).
T2 construct: residues 33-426 (transit peptide removed), N-terminal 8xHis tag, pET-28a, E. coli BL21(DE3)
T2 sequence (P26440 33-426 E286A): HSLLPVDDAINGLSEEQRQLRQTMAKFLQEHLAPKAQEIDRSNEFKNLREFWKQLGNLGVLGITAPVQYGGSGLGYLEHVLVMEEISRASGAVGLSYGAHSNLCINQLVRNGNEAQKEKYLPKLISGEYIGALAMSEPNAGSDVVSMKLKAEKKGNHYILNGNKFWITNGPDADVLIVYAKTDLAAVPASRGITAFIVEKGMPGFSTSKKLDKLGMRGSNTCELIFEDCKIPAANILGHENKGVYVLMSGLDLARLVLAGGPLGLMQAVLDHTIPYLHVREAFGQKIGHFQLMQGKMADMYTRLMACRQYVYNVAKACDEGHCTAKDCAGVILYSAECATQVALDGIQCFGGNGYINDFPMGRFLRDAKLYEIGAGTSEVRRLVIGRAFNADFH
In words: surface plasmon resonance. The settings on record: read-out: KDapp. It counts as binding. Background: In SPR one partner is held on a chip, and binding of the other changes the refractive index at the surface.

The target in data set [3] is T3, Isovaleryl-CoA dehydrogenase (IVD), human, wild type, residues 33-426 (human), P26440.
T3 chain: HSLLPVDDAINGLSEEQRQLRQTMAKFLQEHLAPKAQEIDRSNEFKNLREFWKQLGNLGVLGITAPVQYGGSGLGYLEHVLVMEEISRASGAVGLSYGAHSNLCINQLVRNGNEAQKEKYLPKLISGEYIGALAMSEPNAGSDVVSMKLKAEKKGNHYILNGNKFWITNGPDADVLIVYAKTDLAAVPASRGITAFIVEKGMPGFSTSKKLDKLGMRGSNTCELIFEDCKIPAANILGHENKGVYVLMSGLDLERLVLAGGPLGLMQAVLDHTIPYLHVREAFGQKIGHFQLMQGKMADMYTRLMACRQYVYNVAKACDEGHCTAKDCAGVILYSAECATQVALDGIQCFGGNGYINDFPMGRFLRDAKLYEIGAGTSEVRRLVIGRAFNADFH
In words: cryo-EM structure; purified IVD from SEC in 50 mM tris-HCl pH 7.4, 150 mM NaCl with added FAD; no acyl-CoA; 2.55 Å. The following applies: remark: other sources report otherwise.

Data set [4] deals with the molecule itself. Briefly: cryo-EM structure; purified IVD E286A incubated with isovaleryl-CoA or butyryl-CoA at 37 °C for 15 min, FAD bound; 3.35 and 2.91 Å.

With `Cc1cc2nc3c(=O)[nH]c(=O)nc-3n(C[C@H](O)[C@H](O)[C@H](O)COP(=O)(O)OP(=O)(O)OC[C@H]3O[C@@H](n4cnc5c(N)ncnc54)[C@H](O)[C@@H]3O)c2cc1C` [FAD], the cryo-EM structure result in data set [1] is “resolved in the form of only combining with FAD molecules”.
As to `CCCC(=O)SCCNC(=O)CCNC(=O)[C@H](O)C(C)(C)COP(=O)(O)OP(=O)(O)OC[C@H]1O[C@@H](n2cnc3c(N)ncnc32)[C@H](O)[C@@H]1OP(=O)(O)O` [butyryl-CoA], the Kd in data set [2] stood at 494 nM.
Regarding `CC(C)CC(=O)SCCNC(=O)CCNC(=O)[C@H](O)C(C)(C)COP(=O)(O)OP(=O)(O)OC[C@H]1O[C@@H](n2cnc3c(N)ncnc32)[C@H](O)[C@@H]1OP(=O)(O)O` [isovaleryl-CoA], the Kd in data set [2] was found to be 848 nM.

B1: Isovaleryl-CoA dehydrogenase (IVD), human, wild type, residues 33-426, P26440 33-426 (enzyme)
chain: HSLLPVDDAINGLSEEQRQLRQTMAKFLQEHLAPKAQEIDRSNEFKNLREFWKQLGNLGVLGITAPVQYGGSGLGYLEHVLVMEEISRASGAVGLSYGAHSNLCINQLVRNGNEAQKEKYLPKLISGEYIGALAMSEPNAGSDVVSMKLKAEKKGNHYILNGNKFWITNGPDADVLIVYAKTDLAAVPASRGITAFIVEKGMPGFSTSKKLDKLGMRGSNTCELIFEDCKIPAANILGHENKGVYVLMSGLDLERLVLAGGPLGLMQAVLDHTIPYLHVREAFGQKIGHFQLMQGKMADMYTRLMACRQYVYNVAKACDEGHCTAKDCAGVILYSAECATQVALDGIQCFGGNGYINDFPMGRFLRDAKLYEIGAGTSEVRRLVIGRAFNADFH
One may read the stoichiometry N as the number of molecules, sites or subunits per partner or assembly. For the molecule B1, in data set [3], the stoichiometry N was determined as 4.

B2: Isovaleryl-CoA dehydrogenase (IVD), human, E286A mutant, residues 33-426 (enzyme, UniProt P26440 33-426, looked up)
chain: HSLLPVDDAINGLSEEQRQLRQTMAKFLQEHLAPKAQEIDRSNEFKNLREFWKQLGNLGVLGITAPVQYGGSGLGYLEHVLVMEEISRASGAVGLSYGAHSNLCINQLVRNGNEAQKEKYLPKLISGEYIGALAMSEPNAGSDVVSMKLKAEKKGNHYILNGNKFWITNGPDADVLIVYAKTDLAAVPASRGITAFIVEKGMPGFSTSKKLDKLGMRGSNTCELIFEDCKIPAANILGHENKGVYVLMSGLDLARLVLAGGPLGLMQAVLDHTIPYLHVREAFGQKIGHFQLMQGKMADMYTRLMACRQYVYNVAKACDEGHCTAKDCAGVILYSAECATQVALDGIQCFGGNGYINDFPMGRFLRDAKLYEIGAGTSEVRRLVIGRAFNADFH
notes: human isovaleryl-CoA dehydrogenase (IVD), residues 33 to 426, catalytic-base mutant made by PCR on the WT plasmid; Used for the cryo-EM structures with isovaleryl-CoA and butyryl-CoA; also called IVD E286A; source: E. coli BL21 (DE3), purified (Ni-NTA, SEC on Superdex 200)
Regarding B2, the binding result in data set [4] was “binds”.
